Measurements reported in US9833497B2, “Human originated EGF domain proteins and use of the same” (CHENGDU SOURCEBIO LIMITED-LIABILITY COMPANY, priority 2013, dated 2017).

Experiments:
Type in all cases: cell-based
E. coli DH5α = assay: Antibacterial activity: MIC and growth curve against E. coli DH5α in 96-well plate; conditions: minimal inhibitory concentration against E. coli DH5α; 96-well plate, 5×10^5 CFU/mL, 37° C., judged after 8 h
Summary of the method: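 Log-phase DH5α (OD600 about 0.5, 37° C, 185 rpm in LB) was pelleted, resuspended in fresh LB and seeded at 5×10^5 CFU/mL with recombinant protein at 50, 25 and 12.5 μg/mL (two-fold series), in triplicate. Plates were shaken at 175 rpm, 37° C, and OD600 was read every 30 min. MIC was the lowest concentration with no growth.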

E. coli BL21 = assay: MIC against Gram-negative bacteria: E. coli BL21
Summary of the method: (§1)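 LB broth cultures at McFarland 0.5, spun down, resuspended, diluted to 5×10^5 CFU/mL final. Two-fold serial dilutions of purified human EGF domain proteins, triplicate. 37° C, 175 rpm shaking. Endpoint: no visible growth.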

Pseudomonas aeruginosa = assay: MIC against Gram-negative bacteria: Pseudomonas aeruginosa
Summary of the method: as §1

Klebsiella pneumonia = assay: MIC against Gram-negative bacteria: Klebsiella pneumonia
Summary of the method: as §1

Enterobacter cloacae = assay: MIC against Gram-negative bacteria: Enterobacter cloacae
Summary of the method: as §1

Aeromonas hydrophila = assay: MIC against Gram-negative bacteria: Aeromonas hydrophila
Summary of the method: as §1

Citrobacter diversus = assay: MIC against Gram-negative bacteria: Citrobacter diversus
Summary of the method: as §1

Moraxella catarrhalis = assay: MIC against Gram-negative bacteria: Moraxella catarrhalis
Summary of the method: as §1

Proteus mirabilis = assay: MIC against Gram-negative bacteria: Proteus mirabilis
Summary of the method: as §1

Proteus vulgaris = assay: MIC against Gram-negative bacteria: Proteus vulgaris
Summary of the method: as §1

Serratia marcescens = assay: MIC against Gram-negative bacteria: Serratia marcescens
Summary of the method: as §1

[1] = 96-well plate, 5×10^5 CFU/mL, 37° C., 10 h

PRT1392 (TELCTMECGSHGVCSRGICQCEEGWVGPTC; listed as Homo sapiens)
MIC (E. coli DH5α): 12.5 µg/mL
MIC against E. coli BL21 (E. coli BL21; E. coli BL21, 5×10^5 CFU/mL, 10 h cultivation at 37° C.): 25 µg/mL
MIC against P. aeruginosa (Pseudomonas aeruginosa; Pseudomonas aeruginosa, 5×10^5 CFU/mL, 10 h cultivation at 37° C.): 12.5 µg/mL
MIC against K. pneumonia (Klebsiella pneumonia; Klebsiella pneumonia, 5×10^5 CFU/mL, 10 h cultivation at 37° C.): 25 µg/mL
MIC against E. cloacae (Enterobacter cloacae; Enterobacter cloacae, 5×10^5 CFU/mL, 10 h cultivation at 37° C.): 12.5 µg/mL
MIC against A. hydrophila (Aeromonas hydrophila; Aeromonas hydrophila, 5×10^5 CFU/mL, 10 h cultivation at 37° C.): 25 µg/mL
MIC against C. diversus (Citrobacter diversus; Citrobacter diversus, 5×10^5 CFU/mL, 10 h cultivation at 37° C.): 12.5 µg/mL
MIC against M. catarrhalis (Moraxella catarrhalis; Moraxella catarrhalis, 5×10^5 CFU/mL, 10 h cultivation at 37° C.): 25 µg/mL
MIC against P. mirabilis (Proteus mirabilis; Proteus mirabilis, 5×10^5 CFU/mL, 10 h cultivation at 37° C.): 12.5 µg/mL
MIC against P. vulgaris (Proteus vulgaris; Proteus vulgaris, 5×10^5 CFU/mL, 10 h cultivation at 37° C.): 25 µg/mL
MIC against S. marcescens (Serratia marcescens; Serratia marcescens, 5×10^5 CFU/mL, 10 h cultivation at 37° C.): 50 µg/mL

PRT1012 (APKGCGPPSPCLYNGSCSETTGLGGPGFRCSCPHSSPGPRCQ; listed as Homo sapiens)
MIC (E. coli DH5α): 12.5 µg/mL
MIC (E. coli BL21; E. coli BL21, 10 h cultivation at 37° C.): 50 µg/mL
MIC (Pseudomonas aeruginosa; P. aeruginosa, 10 h cultivation at 37° C.): 12.5 µg/mL
MIC (Klebsiella pneumonia; K. pneumonia, 10 h cultivation at 37° C.): 12.5 µg/mL
MIC (Enterobacter cloacae; E. cloacae, 10 h cultivation at 37° C.): 50 µg/mL
MIC (Aeromonas hydrophila; A. hydrophila, 10 h cultivation at 37° C.): 12.5 µg/mL
MIC (Citrobacter diversus; C. diversus, 10 h cultivation at 37° C.): 50 µg/mL
MIC (Moraxella catarrhalis; M. catarrhalis, 10 h cultivation at 37° C.): 12.5 µg/mL
MIC (Proteus mirabilis; P. mirabilis, 10 h cultivation at 37° C.): 12.5 µg/mL
MIC (Proteus vulgaris; P. vulgaris, 10 h cultivation at 37° C.): 25 µg/mL
MIC (Serratia marcescens; S. marcescens, 10 h cultivation at 37° C.): 12.5 µg/mL

PRT725 (VPNLCKQICSHLCLLRPGGYSCACPQGSSFIEGSTTECD; listed as Homo sapiens)
MIC (E. coli DH5α): 25 µg/mL
MIC E. coli BL21 (E. coli BL21; [1]): 12.5 µg/mL
MIC P. aeruginosa (Pseudomonas aeruginosa; [1]): 25 µg/mL
MIC K. pneumonia (Klebsiella pneumonia; [1]): 50 µg/mL
MIC E. cloacae (Enterobacter cloacae; [1]): 12.5 µg/mL
MIC A. hydrophila (Aeromonas hydrophila; [1]): 25 µg/mL
MIC C. diversus (Citrobacter diversus; [1]): 50 µg/mL
MIC M. catarrhalis (Moraxella catarrhalis; [1]): 25 µg/mL
MIC P. mirabilis (Proteus mirabilis; [1]): 12.5 µg/mL
MIC P. vulgaris (Proteus vulgaris; [1]): 50 µg/mL
MIC S. marcescens (Serratia marcescens; [1]): 25 µg/mL

PRT532 (CWCSALGSYQMPCSSVTGQCECRPGVTGQRCDRCLSGAYDFPHCQGSSSACDP; listed as Homo sapiens)
MIC (E. coli DH5α): 12.5 µg/mL
MIC against E. coli BL21 (E. coli BL21; [1]): 50 µg/mL
MIC against P. aeruginosa (Pseudomonas aeruginosa; [1]): 12.5 µg/mL
MIC against K. pneumonia (Klebsiella pneumonia; [1]): 12.5 µg/mL
MIC against E. cloacae (Enterobacter cloacae; [1]): 12.5 µg/mL
MIC against A. hydrophila (Aeromonas hydrophila; [1]): 12.5 µg/mL
MIC against C. diversus (Citrobacter diversus; [1]): 12.5 µg/mL
MIC against M. catarrhalis (Moraxella catarrhalis; [1]): 50 µg/mL
MIC against P. mirabilis (Proteus mirabilis; [1]): 12.5 µg/mL
MIC against P. vulgaris (Proteus vulgaris; [1]): 50 µg/mL
MIC against S. marcescens (Serratia marcescens; [1]): 12.5 µg/mL

PRT3 (DGDQCESNPCLNGGSCKDDINSYECWCPFGFEGKNCE; listed as Homo sapiens)
MIC (E. coli DH5α): 12.5 µg/mL
MIC (μg/mL) E. coli BL21 (E. coli BL21; E. coli BL21, 96-well plate, 5×10^5 CFU/mL, 37° C., 10 h): 25 µg/mL
MIC (μg/mL) P. aeruginosa (Pseudomonas aeruginosa; Pseudomonas aeruginosa, 96-well plate, 5×10^5 CFU/mL, 37° C., 10 h): 25 µg/mL
MIC (μg/mL) K. pneumonia (Klebsiella pneumonia; Klebsiella pneumonia, 96-well plate, 5×10^5 CFU/mL, 37° C., 10 h): 12.5 µg/mL
MIC (μg/mL) E. cloacae (Enterobacter cloacae; Enterobacter cloacae, 96-well plate, 5×10^5 CFU/mL, 37° C., 10 h): 12.5 µg/mL
MIC (μg/mL) A. hydrophila (Aeromonas hydrophila; Aeromonas hydrophila, 96-well plate, 5×10^5 CFU/mL, 37° C., 10 h): 25 µg/mL
MIC (μg/mL) C. diversus (Citrobacter diversus; Citrobacter diversus, 96-well plate, 5×10^5 CFU/mL, 37° C., 10 h): 25 µg/mL
MIC (μg/mL) M. catarrhalis (Moraxella catarrhalis; Moraxella catarrhalis, 96-well plate, 5×10^5 CFU/mL, 37° C., 10 h): 12.5 µg/mL
MIC (μg/mL) P. mirabilis (Proteus mirabilis; Proteus mirabilis, 96-well plate, 5×10^5 CFU/mL, 37° C., 10 h): 12.5 µg/mL
MIC (μg/mL) P. vulgaris (Proteus vulgaris; Proteus vulgaris, 96-well plate, 5×10^5 CFU/mL, 37° C., 10 h): 25 µg/mL
MIC (μg/mL) S. marcescens (Serratia marcescens; Serratia marcescens, 96-well plate, 5×10^5 CFU/mL, 37° C., 10 h): 12.5 µg/mL
